Here are results for 89 sequences from the OligoGym collection.

Bases are written 5' to 3'; sugars and linkages follow in the same order, as letters with counts (s phosphorothioate, o phosphodiester; PS: all linkages phosphorothioate). C may stand for cytosine or 5-methylcytosine; the collection does not tell. l = locked nucleic acid (LNA); d = 2'-deoxy (DNA)

The target in this data set is HIF1A. The experiment in a line: HeLa, 100 nM transfected, 24 h, mean of 3. Conditions: ASO.
On to “TGGCAAGCATCCTGTA (sugars llddldddddddldll, PS)”, for which the caspase activation (% of PBS control) turned out to be 401.

As for CAAGCATCCTGTA (sugars l4 d7 l2, PS), the caspase activation (% of PBS control) is 212.

For “TGGCAAGCATCCTGTA (sugars l1 d10 l2 d2 l1, PS)”, the caspase activation (% of PBS control) was found to be 346. Take “GTTACTGCCTTCT (sugars l1 d2 l1 d7 l2, PS)”: the caspase activation (% of PBS control) came to 136.

Sequence “GGCAAGCATCCTG (sugars l2 d1 l1 d8 l1, PS)” yielded a caspase activation (% of PBS control) of 359. Sequence “GGCAAGCATCCTG (sugars l1 d1 l2 d8 l1, PS)” had a caspase activation (% of PBS control) of 547. The sequence “GGCAAGCATCCTG (sugars l2 d1 l1 d6 l3, PS)” yielded a caspase activation (% of PBS control) of 502. Consider “TGGCAAGCATCCTGTA (sugars l1 d1 l3 d10 l1, PS)”, for which the caspase activation (% of PBS control) worked out at 595. Sequence “GTTACTGCCTTCTTAC (sugars ldddlddddddllldl, PS)” gave a caspase activation (% of PBS control) of 261. “TGGCAAGCATCCTGTA (sugars l1 d10 l1 d3 l1, PS)” gave a caspase activation (% of PBS control) of 199. Under “TGGCAAGCATCCTGTA (sugars l2 d1 l1 d11 l1, PS)” stands 378. “TTACTGCCTTCTT (sugars lddlddddddldl, PS)”: the caspase activation (% of PBS control) came out at 127.

For “TGGCAAGCATCCTGTA (sugars ldldldddddddllll, PS)”, the caspase activation (% of PBS control) came out at 309. “TGGCAAGCATCCTGTA (sugars ldddlddddddllldl, PS)” displayed a caspase activation (% of PBS control) of 224.

Sequence “GTTACTGCCTTCTTAC (sugars llddlddddddllddl, PS)” came in with a caspase activation (% of PBS control) of 231. Turning to “GTTACTGCCTTCTTAC (sugars lddldddddddldldl, PS)”, the caspase activation (% of PBS control) was 135. As for “GTTACTGCCTTCTTAC (sugars llddlddddddddldl, PS)”, the caspase activation (% of PBS control) was determined as 222. For “TACTGCCTTCTTA (sugars l4 d6 l1 d1 l1, PS)”, the caspase activation (% of PBS control) is 508.

“TGGCAAGCATCCTGTA (sugars l1 d1 l1 d12 l1, PS)”: the caspase activation (% of PBS control) was 180. For “TGGCAAGCATCCTGTA (sugars l2 d10 l2 d1 l1, PS)”, the caspase activation (% of PBS control) is 366. In turn, ACTGCCTTCTTAC (sugars l3 d7 l3, PS) gave a caspase activation (% of PBS control) of 403. For “GTTACTGCCTTCTTAC (sugars l1 d10 l1 d1 l3, PS)”, the caspase activation (% of PBS control) was found to be 125. “CAAGCATCCTGTA (sugars l1 d1 l1 d7 l3, PS)” showed a caspase activation (% of PBS control) of 198.

The sequence “TGGCAAGCATCCT (sugars l1 d1 l2 d7 l2, PS)” had a caspase activation (% of PBS control) of 353. As to GTTACTGCCTTCTTAC (sugars l3 d11 l2, PS), the caspase activation (% of PBS control) came to 136. GTTACTGCCTTCT (sugars l2 d10 l1, PS): the caspase activation (% of PBS control) came to 109. Take “GTTACTGCCTTCTTAC (sugars lldllddddddddldl, PS)”: the caspase activation (% of PBS control) was 291.

On to “GTTACTGCCTTCTTAC (sugars ldlllddddddldldl, PS)”, for which the caspase activation (% of PBS control) was found to be 438. In turn, GCAAGCATCCTGT (sugars l3 d8 l2, PS) registered a caspase activation (% of PBS control) of 450. Regarding “GTTACTGCCTTCTTAC (sugars lldllddddddldlll, PS)”, the caspase activation (% of PBS control) is 278. Sequence TTACTGCCTTCTT (sugars l4 d7 l2, PS) had a caspase activation (% of PBS control) of 337. GTTACTGCCTTCT (sugars l3 d9 l1, PS) gave a caspase activation (% of PBS control) of 138. For the sequence “GTTACTGCCTTCTTAC (sugars ldddlddddddldddl, PS)”, the caspase activation (% of PBS control) was determined as 137. Regarding “TGGCAAGCATCCTGTA (sugars ldldlddddddldddl, PS)”, the caspase activation (% of PBS control) is 179.

Sequence “CAAGCATCCTGTA (sugars l1 d1 l2 d6 l3, PS)” returned a caspase activation (% of PBS control) of 134. The same measure for GCAAGCATCCTGT (sugars l3 d9 l1, PS): 346; for “TGGCAAGCATCCTGTA (sugars l2 d9 l2 d1 l2, PS)”: 401; for “GTTACTGCCTTCTTAC (sugars l2 d2 l1 d7 l4, PS)”: 324. The same measure for GTTACTGCCTTCTTAC (sugars l4 d10 l2, PS): 190. The same measure for “TGGCAAGCATCCTGTA (sugars l3 d8 l1 d2 l2, PS)”: 297; for “TGGCAAGCATCCTGTA (sugars l1 d1 l3 d8 l3, PS)”: 448.

The sequence “TGGCAAGCATCCTGTA (sugars l2 d9 l3 d1 l1, PS)” showed a caspase activation (% of PBS control) of 352. “GTTACTGCCTTCT (sugars l1 d1 l2 d7 l2, PS)” yielded a caspase activation (% of PBS control) of 154. The same measure for “GCAAGCATCCTGT (sugars l2 d1 l1 d6 l3, PS)”: 267. As to “GTTACTGCCTTCTTAC (sugars ldddlddddddddldl, PS)”, the caspase activation (% of PBS control) is 159. “TGGCAAGCATCCTGTA (sugars lldldddddddlldll, PS)” gave a caspase activation (% of PBS control) of 410.

Turning to TGGCAAGCATCCT (sugars l2 d9 l2, PS), the caspase activation (% of PBS control) amounted to 434. Regarding “TGGCAAGCATCCTGTA (sugars llldlddddddllddl, PS)”, the caspase activation (% of PBS control) came to 268. The same measure for “GTTACTGCCTTCTTAC (sugars ldldlddddddldldl, PS)”: 251; for “GTTACTGCCTTCTTAC (sugars l1 d2 l1 d8 l4, PS)”: 175; for “GTTACTGCCTTCTTAC (sugars ldlllddddddlddll, PS)”: 425. “GTTACTGCCTTCTTAC (sugars l2 d1 l1 d10 l2, PS)” had a caspase activation (% of PBS control) of 97.3.

Consider “GTTACTGCCTTCTTAC (sugars llldldddddddlldl, PS)”, for which the caspase activation (% of PBS control) worked out at 341. On to “GCAAGCATCCTGT (sugars l1 d2 l1 d8 l1, PS)”, for which the caspase activation (% of PBS control) was 187.

In turn, “ACTGCCTTCTTAC (sugars l1 d1 l1 d8 l2, PS)” had a caspase activation (% of PBS control) of 191. For the sequence GTTACTGCCTTCT (sugars l3 d7 l3, PS), the caspase activation (% of PBS control) turned out to be 267. For the sequence “GTTACTGCCTTCTTAC (sugars ldlllddddddlldll, PS)”, the caspase activation (% of PBS control) turned out to be 410. The same measure for “GTTACTGCCTTCTTAC (sugars lldlldddddddlddl, PS)”: 278; for “GTTACTGCCTTCTTAC (sugars l5 d7 l1 d2 l1, PS)”: 446; for TGGCAAGCATCCTGTA (sugars l5 d9 l2, PS): 402. On to “GTTACTGCCTTCTTAC (sugars lddllddddddllldl, PS)”, for which the caspase activation (% of PBS control) was found to be 414. Sequence TGGCAAGCATCCT (sugars l1 d11 l1, PS) returned a caspase activation (% of PBS control) of 123. “GTTACTGCCTTCTTAC (sugars l1 d1 l2 d7 l5, PS)” registered a caspase activation (% of PBS control) of 361.

Turning to “GTTACTGCCTTCT (sugars l2 d8 l1 d1 l1, PS)”, the caspase activation (% of PBS control) came out at 98.3. “GTTACTGCCTTCTTAC (sugars l1 d1 l2 d9 l3, PS)”: the caspase activation (% of PBS control) is 141. In turn, “GTTACTGCCTTCTTAC (sugars lldldddddddllddl, PS)” gave a caspase activation (% of PBS control) of 196.

As for “GTTACTGCCTTCTTAC (sugars ldlldddddddlddll, PS)”, the caspase activation (% of PBS control) came to 191. “TACTGCCTTCTTA (sugars l1 d9 l1 d1 l1, PS)” gave a caspase activation (% of PBS control) of 142. For the sequence “GTTACTGCCTTCT (sugars lldlddddddldl, PS)”, the caspase activation (% of PBS control) stood at 105.

The sequence “TGGCAAGCATCCTGTA (sugars ldlllddddddldldl, PS)” gave a caspase activation (% of PBS control) of 455.

“TGGCAAGCATCCTGTA (sugars ldlldddddddllddl, PS)” gave a caspase activation (% of PBS control) of 360. Regarding “TGGCAAGCATCCTGTA (sugars l2 d10 l1 d1 l2, PS)”, the caspase activation (% of PBS control) was determined as 376.

With “GTTACTGCCTTCTTAC (sugars l4 d7 l3 d1 l1, PS)”, the caspase activation (% of PBS control) worked out at 444. On to “GTTACTGCCTTCTTAC (sugars l3 d8 l1 d2 l2, PS)”, for which the caspase activation (% of PBS control) is 204. Regarding GTTACTGCCTTCTTAC (sugars l3 d9 l4, PS), the caspase activation (% of PBS control) was 165.

Consider “TGGCAAGCATCCTGTA (sugars l3 d8 l2 d1 l2, PS)”, for which the caspase activation (% of PBS control) was found to be 414. “GTTACTGCCTTCTTAC (sugars l4 d8 l1 d1 l2, PS)” gave a caspase activation (% of PBS control) of 218. As to GTTACTGCCTTCTTAC (sugars l4 d7 l5, PS), the caspase activation (% of PBS control) came out at 461. Sequence CAAGCATCCTGTA (sugars l3 d9 l1, PS) showed a caspase activation (% of PBS control) of 237. The same measure for “TGGCAAGCATCCTGTA (sugars l2 d1 l1 d8 l4, PS)”: 393; for “GTTACTGCCTTCTTAC (sugars llddlddddddlldll, PS)”: 208.

Sequence “TACTGCCTTCTTA (sugars l1 d1 l1 d8 l2, PS)” had a caspase activation (% of PBS control) of 277. Under “TTACTGCCTTCTT (sugars l1 d1 l2 d6 l3, PS)” stands 237. Turning to “TACTGCCTTCTTA (sugars ldldddddddldl, PS)”, the caspase activation (% of PBS control) was determined as 237. As to “TGGCAAGCATCCTGTA (sugars ldldlddddddlllll, PS)”, the caspase activation (% of PBS control) stood at 342. In the case of “TGGCAAGCATCCTGTA (sugars l1 d2 l2 d9 l2, PS)”, the caspase activation (% of PBS control) was 380. “TGGCAAGCATCCTGTA (sugars lldldddddddldldl, PS)”: the caspase activation (% of PBS control) came to 429. Take “TGGCAAGCATCCTGTA (sugars lldllddddddddldl, PS)”: the caspase activation (% of PBS control) came out at 418. Sequence ACTGCCTTCTTAC (sugars l1 d10 l2, PS) showed a caspase activation (% of PBS control) of 120.
